From patent US20130195956A1, “Transdermal Hormone Delivery” (Agile Therapeutics, Inc., priority 2012, published 2013)
Values joined by “and” are separate entries in the source; they are usually repeats but may differ in a detail not shown here. Equal values may be shown once.

Key:
[1] = Protocol: Sheets were cast with the blend shown in Table 1 and dried for 17 minutes at 60 degrees Centigrade. Drying was followed by lamination to a polyester backing membrane and circular cutting of individual patches. The dry formulation of the patches is shown in the second column of Table 1.
[2] = cited from earlier work
[3] = 7 day in vitro skin permeation, Franz diffusion cells, hairless rat abdominal skin; details: for average cumulative amount permeated at the end of 7 days: donor: saturated solution in PEG-400, FIG. 6
Excerpt: Skin was isolated from hairless rats (male, 8-10 weeks old and 350-400 g in weight) that were obtained from Charles River (Wilmington, Mass., USA). All the animals were allowed to acclimate for at least 1 week prior to their use in any experiment. […] Hairless rats were euthanized by carbon dioxide asphyxiation prior to the permeation experiment and abdominal skin was carefully excised using a pair of scissors and forceps. The underlying subcutaneous fat was removed from the excised skin and the abdominal skin thus obtained (˜1 mm thick) was used for the permeation experiments.
The 7 day permeation studies were performed using in vitro Franz diffusion cells (PermeGear, Inc., Hellertown, Pa., USA) having an effective diffusion surface area of 0.64 cm^2 (n≧3). […] These served as corresponding donor solutions. The receptor phase consisted of PEG 400 having gentamycin sulfate (80 mg/L). Gentamycin sulfate was added to the receptor phase to prevent microbial growth during the 7 day study. During the entire study, the receptor phase was maintained at 37° C. with constant stirring at 600 rpm. Freshly excised and cleaned hairless rat abdominal skin was obtained on the day of the experiment. This isolated skin was placed in between the donor and the receptor compartments and the entire set up was then secured in place using a clamp. Donor solution (0.5 ml) was then loaded into the donor cells using a pipette and the top was covered using parafilm and a silver foil. […] The only difference was that instead of using the saturated desogestrel solution as donor, desogestrel containing patches were used. Transdermal patches, large enough to cover the receptor compartment top, were cut out of the cast sheets, the release liner was removed and the patches were placed on the skin such that the adhesive side of the patch was facing the stratum corneum side of the skin. The donor cell was then placed and the entire set up was secured using a clamp. All samples obtained were analyzed using HPLC.
Analysis of the amount of drug in the samples was performed using a chromatographic method described in the literature with few modifications. […] Phenomenex RP C6 Luna 5μ column (Phenomenex, Torrance, Calif.) set at 35° C. was employed for gradient elution method. The mobile phase consisted of methanol and water. The gradient method was initiated with the use of a 70:30 (methanol:water) solution, followed by a change of the mobile phase composition to 100% methanol over the next 7 minutes. This methanol:water (100:0) composition was maintained till the 10th minute and then the mobile phase composition was changed again to a composition of 70:30 (methanol:water) by the 12th min. The run time of each injection was 15 minutes and the injection volume was 100 μl. The flow rate of the mobile phase throughout the run was 1.5 ml/min. […] The standard curve was linear over the range of 0.5-100 μg.
Student t-test and analysis of variance (ANOVA) were used to determine statistically significant differences. The p-value used in this study was 0.05.

[4] = Slide and patch crystallization studies for saturation solubility in adhesives and additives; format: physicochemical
Protocol: Drug in adhesive transdermal patches were prepared as follows. Predetermined amounts of drug, adhesive, ethyl acetate and/or additives (copovidone/mineral oil) were weighed into a glass container with lid and sealed using a parafilm to minimize loss of organic solvents. The formulation was stirred for 2 hours using a magnetic stirrer to form a homogenous mixture. The mixture was then cast on a release liner (3 mil fluoropolymer coated polyester film, Scotchpak™ 9744 from 3M) using a Gardner film casting knife (BYK-AG-4300 series, Columbia, Md., USA) and the cast sheet was dried in an oven at 60° C. for 17 minutes. Thereafter, the entire sheet was laminated using a backing membrane (2 mil polyester with an ethylene vinyl acetate copolymer, Scotchpak™ 9732 from 3M), which was placed on the cast film using a roller, ensuring no air pockets were formed. […]
The three different adhesives that were investigated for the preparation of desogestrel transdermal patches were two acrylate adhesives, Duro-Tak 87-4098 and Duro-Tak 87-202A, and one PIB adhesive, Duro-Tak 87-608A. […] The saturation solubility of desogestrel in these adhesives was determined using the slide method discussed earlier as well as crystallization studies on complete patches. […]

[5] = Skin permeation of LNG from LNG/EE patches with four enhancers, Franz diffusion cells, human skin compared with rat skin; format: in vitro ADME; details: patches of Example 1 with four skin permeation enhancers; FIGS. 1-4
Protocol: A skin permeation experiment for the delivery of LNG from the patches prepared in Example 1 was performed (n=3). Three separate patches were cut to appropriate size such that they would cover the top of the receptor compartment of a Franz skin diffusion cell (exposed surface area of 0.64 cm^2). Hairless rat skin was freshly excised before the permeation experiment. PBS (0.1×) having 80 mg/L gentamycin sulfate and 0.5% Volpo was used as the receptor buffer (pH 7.2). Samples (0.5 ml) were taken at predetermined time points (3 hr, 6 hr, 12 hr, 24 hr, 2nd, 3rd, 4th, 5th, 6th and 7th day) and were analyzed for LNG levels using High Pressure Liquid Chromatography (HPLC).
The average flux (FIG. 1) and the cumulative amount (FIG. 2) of LNG that permeated across the hairless rat skin, during a period of four days, were determined and are shown below. In addition, patches manufactured using production equipment under the same processes and containing exactly the same amounts and ingredients as the pilot patches mentioned in Example 1 were used for comparison.
The above studies were performed using rat skin, which, for many drugs, is known to have similar permeation characteristics as human skin. […]

[6] = general statement in description

Row | Compound | saturation of the patch with the hormone [1] | logP [2] | average cumulative amount permeated at the end of 7 days ([3]; hairless rat skin) | skin permeation relative to ethinyl estradiol [3, 6] | skin permeation relative to levonorgestrel [3, 6] | average cumulative amount and flux from saturated PEG solution compared with optimized patches ([3]; p<0.05, hairless rat skin) | average flux and cumulative amount compared with levonorgestrel ([3]; saturated PEG-400 solutions, p<0.05, FIGS. 5 and 6) | saturation solubility in PIB adhesive (Duro-Tak 87-608A) ([4]; slides and patches) | saturation solubility in copovidone (Plasdone S-630) ([4]; slides, drug:copovidone w/w ratios, up to 6 months) | permeation through rat skin compared with permeation through human skin [5]
1 | C#C[C@]1(O)CC[C@H]2[C@@H]3CCc4cc(O)ccc4[C@H]3CC[C@@]21C [ethinyl estradiol] | 22% |  |  |  |  |  |  |  |  | 
2 | C#C[C@]1(O)CC[C@H]2[C@@H]3CCC4=CCCC[C@@H]4[C@H]3C(=C)C[C@@]21CC [desogestrel] |  | 4 | 389.4±6.2 μg/sq.cm | higher | approximately ten-fold higher | significantly higher | significantly higher | 3-4 % w/w | 70-80 % w/w and 70 % w/w | 
3 | C#C[C@]1(O)CC[C@H]2[C@@H]3CCC4=CC(=O)CC[C@@H]4[C@H]3CC[C@@]21CC [levonorgestrel] |  | 3.8 | 1.8±0.1 μg/sq.cm |  |  |  |  |  |  | very similar
